Experimental data taken from PMC3155411 (2011).

Assays:
[1] = target: T1, yeast alcohol dehydrogenase (Saccharomyces cerevisiae, UniProt P00330); test: fluorescence titration; format: binding
T1 sequence (P00330 2-348): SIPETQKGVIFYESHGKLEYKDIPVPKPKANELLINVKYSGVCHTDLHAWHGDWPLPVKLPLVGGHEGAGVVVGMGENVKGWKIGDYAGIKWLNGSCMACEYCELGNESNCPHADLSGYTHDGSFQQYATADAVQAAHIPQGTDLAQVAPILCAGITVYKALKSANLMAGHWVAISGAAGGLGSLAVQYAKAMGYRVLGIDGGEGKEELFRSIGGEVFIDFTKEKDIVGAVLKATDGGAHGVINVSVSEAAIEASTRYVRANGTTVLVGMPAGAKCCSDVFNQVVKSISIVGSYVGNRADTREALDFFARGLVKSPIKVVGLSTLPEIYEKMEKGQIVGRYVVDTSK

[2] = target: carbonic anhydrase (Zn-CA) (Bos taurus, UniProt P00921); test: fluorescence titration; format: binding
carbonic anhydrase (Zn-CA), sequence (P00921 2-260): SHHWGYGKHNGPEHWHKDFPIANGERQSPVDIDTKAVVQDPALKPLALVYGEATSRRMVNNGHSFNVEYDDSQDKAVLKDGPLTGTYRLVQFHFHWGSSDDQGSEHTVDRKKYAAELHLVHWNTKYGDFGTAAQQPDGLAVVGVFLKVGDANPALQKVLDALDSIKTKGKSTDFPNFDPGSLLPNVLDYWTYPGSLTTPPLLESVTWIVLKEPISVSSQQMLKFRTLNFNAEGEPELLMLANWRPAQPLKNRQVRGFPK

COc1cc(NS(=O)(=O)c2ccc(C)cc2)c2ncccc2c1 [TSQ, 6-methoxy-8-p-toluenesulfonamido-quinoline]
Kd [1]: 48.6 µM | Kd [2]: 155 nM
